Active and inactive are the calls of the source.
Legend:
[1] = target: Albumin (Bos taurus, UniProt P02769); experiment: Counterscreen for inhibitors of T-cell receptor (TCR)-CD3 interaction: Fluorescence-based biochemical high throughput dose response assay to identify inhibitors of T-cell receptor (TCR)-CD3 interaction using a TAMRA-labeled BSA probe.; format: functional
[2] = target: Peroxisome proliferator-activated receptor gamma/Nuclear receptor corepressor 2 (Homo sapiens, UniProt P37231+Q9Y618); experiment: Counterscreen for NR2E3 inverse agonists: TR-FRET-based biochemical high throughput dose response assay to identify inverse agonists of the interaction between peroxisome proliferator-activated receptor gamma (PPARg) and nuclear receptor co-repressor 2 (NCOR2).; format: functional
[3] = target: Photoreceptor-specific nuclear receptor (Homo sapiens, UniProt Q9Y5X4); experiment: ligands suppressing NR2E3 nuclear receptor activity – biochemical, TR-FRET, dose response (AID 463256); format: functional
[4] = target: T1, RNA-editing ligase 1, mitochondrial (Trypanosoma brucei brucei, UniProt P86926); experiment: inhibition of trypanosome RNA editing ligase – biochemical, fluorescence, Trypanosoma brucei, dose response (AID 1117295); format: functional
T1 sequence (P86926 whole entry): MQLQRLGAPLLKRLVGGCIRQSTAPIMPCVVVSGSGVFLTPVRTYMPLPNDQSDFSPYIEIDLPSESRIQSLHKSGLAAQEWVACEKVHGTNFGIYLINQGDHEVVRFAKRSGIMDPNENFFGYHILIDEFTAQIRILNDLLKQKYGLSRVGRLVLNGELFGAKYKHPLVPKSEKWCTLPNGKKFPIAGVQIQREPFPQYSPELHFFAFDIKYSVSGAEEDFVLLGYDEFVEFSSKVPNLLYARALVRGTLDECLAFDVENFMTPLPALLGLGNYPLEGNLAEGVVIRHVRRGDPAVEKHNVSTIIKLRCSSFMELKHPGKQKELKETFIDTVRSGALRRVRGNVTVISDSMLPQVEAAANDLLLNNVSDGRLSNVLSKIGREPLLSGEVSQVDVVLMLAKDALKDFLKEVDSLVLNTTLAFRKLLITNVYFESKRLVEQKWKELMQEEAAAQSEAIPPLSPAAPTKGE

[5] = target: Induced myeloid leukemia cell differentiation protein Mcl-1 (Homo sapiens, UniProt Q07820); format: functional
[6] = target: Nonstructural protein 1 (Influenza A virus, UniProt Q194T2); format: functional, Influenza A virus (A/California/07/2009(H1N1))
[7] = cells
[8] = target: Major prion protein (Homo sapiens, UniProt P04156); format: functional, cell-based
[9] = target: Protein-tyrosine kinase 2-beta (Homo sapiens, UniProt Q14289);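 further: potency of inhibitors of PYK2 kinase phosphorylation of poly-GT substrate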
[10] = inhibition of ADAM10 peptide cleavage – biochemical, FRET peptide substrate, recombinant human ADAM10, selectivity assay for ADAM17 exosite inhibitor project, dose response (AID 743259);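 further: ADAM10 enzyme cleaving a FRET peptide substrate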
[11] = target: Disintegrin and metalloproteinase domain-containing protein 17 (Homo sapiens, UniProt P78536); experiment: exosite inhibitors of ADAM17, dose response, biochemical (AID 743260)
[12] = target: Kallikrein-7 (Homo sapiens, UniProt P49862); experiment: Fluorescence Intensity-based biochemical primary high throughput dose response assay to identify activators of kallikrein-7 (K7) zymogen.
[13] = luciferase reporter signal suppression in cells – H4 neuroglioma cells, luminescence, dose response (AID 1990); format: functional, cell-based
[14] = Luminescence Cell-Based Dose Response HTS to Identify Inhibitors of 5'UTR Stem-Loop Driven Prion Protein mRNA Translation in H4 Neuroglioblastoma Cells. [Related pubchem assays: 1827 (Project Summary), 1813 (Primary HTS)]; format: functional
[15] = alpha-synuclein stem-loop luciferase translation blockers – H4 neuroglioma cells, luminescence, confirmation (AID 1988); format: functional, cell-based
[16] = target: NAD-dependent protein deacylase sirtuin-5, mitochondrial (Homo sapiens, UniProt Q9NXA8); experiment: sirtuin-5 deacylation blockers, concentration series – biochemical, fluorescence imaging, cherry-pick, set 5, dose response (AID 720591);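 further: desuccinylation of succinyl peptide AMC substrate read as fluorescence after trypsin release; potency of inhibitors that lower fluorescence and may act on trypsin instead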
[17] = target: T2, Fatty acid synthase (Homo sapiens, UniProt P49327); experiment: inhibition of human FAS-TE enzyme activity – biochemical, endpoint fluorescence intensity, uHTS hits, dose response (AID 624327); format: functional;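 further: fluorescence from hydrolysis of an O-methyl fluorescein acyl ester substrate by the enzyme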
[18] = target: Prothrombin (Homo sapiens, UniProt P00734); experiment: Thrombin 1536 HTS Dose Response Confirmation. [Related pubchem assays: 1046 (Thrombin 1536 HTS; hits were confirmed in this assay)]; format: functional
[19] = target: T2, Fatty acid synthase; experiment: inhibition of human FAS-TE enzyme activity – biochemical, kinetic fluorescence intensity, dose response (AID 624326); format: functional;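 further: rate of fluorescence rise from hydrolysis of a fluorogenic O-methyl fluorescein ester substrate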
[20] = target: Peroxisome proliferator-activated receptor gamma/Nuclear receptor coactivator 2 (Homo sapiens, UniProt P37231); experiment: (§1) TR-FRET dose response biochemical High Throughput Screening assay for agonists of the steroid receptor coactivator 2 (SRC-2) recruitment by the peroxisome proliferator-activated receptor gamma (PPAR gamma): non-selective agonists. [Related pubchem assays: 1297, 1032 ]; format: functional
[21] = target: Peroxisome proliferator-activated receptor gamma/Nuclear receptor coactivator 3 (Homo sapiens, UniProt P37231); experiment: as §1, with “3 (SRC-3)” for “2 (SRC-2)”, “1301 (Confirmation screen.), 1048 (Primary screen.)]” for “1297, 1032 ]”; format: functional
[22] = target: T3, DNA repair protein RAD52 homolog (Homo sapiens, UniProt P43351); format: functional, biochemical
T3 sequence (P43351 whole entry): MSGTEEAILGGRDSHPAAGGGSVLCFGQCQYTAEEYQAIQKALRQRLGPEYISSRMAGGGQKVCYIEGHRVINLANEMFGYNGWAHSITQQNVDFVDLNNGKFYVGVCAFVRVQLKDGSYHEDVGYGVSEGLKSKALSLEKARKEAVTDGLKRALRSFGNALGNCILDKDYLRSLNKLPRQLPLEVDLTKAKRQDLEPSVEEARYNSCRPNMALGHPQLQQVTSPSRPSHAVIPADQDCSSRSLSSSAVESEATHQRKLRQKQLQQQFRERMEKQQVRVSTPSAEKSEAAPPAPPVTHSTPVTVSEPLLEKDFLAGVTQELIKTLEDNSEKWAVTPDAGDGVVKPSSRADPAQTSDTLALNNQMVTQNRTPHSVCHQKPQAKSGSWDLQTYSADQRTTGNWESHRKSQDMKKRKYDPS

Structure (SMILES): O=C(CSc1nc2ccccc2c(=O)n1-c1ccc(F)c(Cl)c1)Nc1cccc(S(=O)(=O)N2CCOCC2)c1
- IC50 [1]: > 94.2 µM (inactive)

Structure (SMILES): Cc1csc(NC(=O)COc2ccc3c(C)cc(=O)oc3c2)n1
- IC50 [2]: > 39.8 µM (not active)
- IC50 [3]: 7.06 µM (active)

Structure (SMILES): Cc1n[nH]c(=S)n(NC(=O)/C=C/C(=O)Nn2c(=S)[nH]nc(C)c2=O)c1=O
- IC50 [4]: 63.6 µM (inactive)
- IC50 [5]: 4.67 µM (active)
- IC50 [6]: 7.29 µM (active)

Structure (SMILES): CCOC(=O)CSc1nc(C(C)C)nc2ccccc12
- IC50 [7]: > 138 µM (inactive)
- IC50 [8]: 1.08 µM (active)
- IC50 [9]: > 69.5 µM (not active)

Structure (SMILES): COc1ccc(OC)c(NC(=O)COC(=O)Cc2ccc(-c3ccccc3)cc2)c1
- IC50 [10]: > 69.5 µM (inactive)
- IC50 [11]: > 69.5 µM (inactive)

Structure (SMILES): Cc1cc(C)c2c(n1)nn1c(NCCN3CCOCC3)cc(C)nc21
- EC50 [12]: 34.8 µM (inactive)

Structure (SMILES): COc1ccc(C2C3=C(O)CC(C)(C)CC3=NC(C)=C2C(=O)N2CCOCC2)c(OC)c1 (centres undefined)
- EC50 [12]: 52.4 µM (inactive)

Structure (SMILES): CCOC(=O)c1c(-c2ccccc2)csc1NC(=O)CSc1nncs1
- IC50 [10]: > 69.5 µM (inactive)
- IC50 [11]: > 69.5 µM (inactive)
- EC50 [13]: 15.8 µM (active)
- EC50 [14]: > 120 µM (not active)
- EC50 [15]: 30.6 µM (active)

Structure (SMILES): COc1cccc(-c2cc(C(=O)Nc3cc(C)on3)no2)c1
- IC50 [2]: > 39.8 µM (not active)
- IC50 [3]: > 39.8 µM (not active)

Structure (SMILES): Cc1cccc(NC(=O)N2CCCC(CNC(=O)c3ccccc3Cl)C2)c1C (centres undefined)
- AC50 [16]: > 30 µM (inactive)

Structure (SMILES): O=C(CN1C(=O)NC2(CCCc3ccccc32)C1=O)NCC(F)(F)F (centres undefined)
- IC50 [2]: 7.85 µM (active)
- IC50 [3]: 8.55 µM (active)

Structure (SMILES): CCn1cc(C(=O)NCc2ccco2)c(=O)c2cc(S(=O)(=O)N3CCCCCC3)ccc21
- IC50 [17]: 2.96 µM (active)
- IC50 [18]: 14.7 µM (active)
- IC50 [19]: 2.32 µM (active)

Structure (SMILES): O=C(Oc1ccc(Oc2ccccc2)cc1)N1CCC(O)CC1
- AC50 [16]: > 30 µM (inactive)

Structure (SMILES): N#CC1=C2SCN(Cc3ccccc3)CN2C(=O)CC1c1cccs1 (centres undefined)
- EC50 [20]: > 79.4 µM (not active)
- EC50 [21]: > 79.4 µM (not active)
- IC50 [7]: > 138 µM (inactive)
- IC50 [8]: > 138 µM (inactive)

Structure (SMILES): COCCN1CCn2c(nc3cc(Nc4nnc(C)c5ccccc45)ccc32)C1
- AC50 [22]: 11.9 µM (active)

Structure (SMILES): CC(C)OC(=O)CSc1nc(Cc2ccccc2)nc2ccccc12
- IC50 [7]: > 138 µM (inactive)
- IC50 [8]: 4.45 µM (active)

Reference: ChEMBL document CHEMBL1201862, “PubChem BioAssay data set” (2004)
